Laboratory results from patent US7741484B2, “Process for synthesis of phenoxy diaminopyrimidine derivatives” (Roche Palo Alto LLC, priority 2005, dated 2010).

Molecular target: T1, rat P2X3 receptor (Rattus norvegicus, UniProt P49654)
T1 construct: expressed in transfected cells; host or cells: CHO-K1
T1 sequence (P49654 1-397): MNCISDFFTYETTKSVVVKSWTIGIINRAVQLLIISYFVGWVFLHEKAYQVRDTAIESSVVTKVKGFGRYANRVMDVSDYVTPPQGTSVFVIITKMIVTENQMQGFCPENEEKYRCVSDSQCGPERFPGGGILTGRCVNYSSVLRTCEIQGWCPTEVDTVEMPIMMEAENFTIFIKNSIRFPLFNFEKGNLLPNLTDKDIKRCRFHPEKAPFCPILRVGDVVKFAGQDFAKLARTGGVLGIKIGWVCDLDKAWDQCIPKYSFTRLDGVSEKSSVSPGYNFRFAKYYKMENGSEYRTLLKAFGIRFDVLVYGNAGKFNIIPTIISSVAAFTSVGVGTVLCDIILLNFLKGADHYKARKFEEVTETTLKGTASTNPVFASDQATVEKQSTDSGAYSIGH
Experiment: P2X3 FLIPR (Fluorometric Imaging Plate Reader) assay, inhibition of α,β-meATP-evoked calcium fluorescence
Assay type: cell-based
Details: CHO-K1 cells transfected with cloned rat P2X3; agonist α,β-meATP 1 μM; Fluo-3 AM; read-out: pIC50 for the P2X3 receptor (converted)
Protocol: CHO-K1 cells were transfected with cloned rat P2X3 or human P2X2/3 receptor subunits and passaged in flasks. 18-24 hours before the FLIPR experiment, cells were released from their flasks, centrifuged, and resuspended in nutrient medium at 2.5×10^5 cells/ml. The cells were aliquoted into black-walled 96-well plates at a density of 50,000 cells/well and incubated overnight in 5% CO2 at 37° C. On the day of the experiment, cells were washed in FLIPR buffer (calcium- and magnesium-free Hank's balanced salt solution, 10 mM HEPES, 2 mM CaCl2, 2.5 mM probenecid; FB). Each well received 100 μl FB and 100 μl of the fluorescent dye Fluo-3 AM [2 μM final conc.]. […]
Test compounds (dissolved in DMSO at 10 mM and serially diluted with FB) or vehicle were added to each well (25 μl of a 4× solution) and allowed to equilibrate for 20 minutes at room temperature. The plates were then placed in the FLIPR and a baseline fluorescence measurement (excitation at 488 nm and emission at 510-570 nm) was obtained for 10 seconds before a 100 μl/well agonist or vehicle addition. […] Fluorescence was measured for an additional 2 minutes at 1 second intervals after agonist addition. A final addition of ionomycin (5 μM, final concentration) was made to each well of the FLIPR test plate to establish cell viability and maximum fluorescence of dye-bound cytosolic calcium. […]

IC50: ~10 nM
SMILES: COc1cc(C(C)C)c(Oc2cnc(N)nc2N)cc1I [5-(5-Iodo-2-isopropyl-4-methoxy-phenoxy)-pyrimidine-2,4-diamine]
